# Tested on: Ratten
# Test: Automatic recording of stereotypies in rats (Horowski method), dopamine-agonist effect
# Assay type: in vivo, männliche Wistar-Ratten
# Settings: 60 min after treatment
# Excerpt: Die dopaminagonistische Wirkung wurde mit Hilfe der von Horowski beschriebenen Methode der automatischen Registrierung von Stereotypien an Ratten bestimmt (Arzneim. Forsch. 12, 2281-2286, 1978): Unmittelbar nach intraperitonealer Prüfsubstanz- bzw. Vehikelverabreichung werden männliche Wistar-Ratten (90-120 g) einzeln in Zwangskäfige aus Acrylglas gesetzt. Über ein vor dem Kopf der Tiere angebrachtes elektrodynamisches Aufnahmesystem wird die Zahl der Kontakte an einem stählernen Becher mit einem zentralen Metallstab als Folge der stereotypen Kau-, Leck- und Nagebewegungen während 60 Minuten registriert. Die Mittelwerte ± S.E.M. der Anzahl der Kontakte während 60 Minuten für die verschiedenen Behandlungsgruppen, die mit jeweils 12 Tieren besetzt sind, werden berechnet und die Signifikanz der Unterschiede zwischen den Mittelwerten der verschiedenen Prüfsubstanzdosen im Vergleich zur Vehikel-behandelten Kontrollgruppe mit Hilfe der einfachen Varianzanalyse in Verbindung mit dem Dunnett-Test ermittelt.
smiles,measurement,setting,value
"CCN(CC)C(=O)N[C@H]1C[C@@H]2c3cc(Br)cc4[nH]c(C)c(c34)C[C@H]2N(CC)C1 [CH2CH3, 3-(13-Brom-6-ethyl-2-methyl-8α-ergolinyl)-1,1-diethyl-harnstoff]",Stereotypien(counts pro 60 Minuten) (Mittelwert ± S.E.M.),"dose 0.025 mg/kg intraperitoneal, n=12, vehicle control 2137 ± 849",1943 ± 472 counts pro 60 Minuten
same,Stereotypien(counts pro 60 Minuten) (Mittelwert ± S.E.M.),"dose 0.1 mg/kg intraperitoneal, n=12, vehicle control 2137 ± 849",2470 ± 548 counts pro 60 Minuten
same,Stereotypien(counts pro 60 Minuten) (Mittelwert ± S.E.M.),"dose 0.39 mg/kg intraperitoneal, n=12, xx: p<0.01 vs. control, vehicle control 2137 ± 849",7499 ± 1342xx counts pro 60 Minuten
same,Stereotypien(counts pro 60 Minuten) (Mittelwert ± S.E.M.),"dose 1.56 mg/kg intraperitoneal, n=12, xx: p<0.01 vs. control, vehicle control 2137 ± 849",8066 ± 1248xx counts pro 60 Minuten
same,Stereotypien(counts pro 60 Minuten) (Mittelwert ± S.E.M.),"dose 6.25 mg/kg intraperitoneal, n=12, xx: p<0.01 vs. control, vehicle control 2137 ± 849",7381 ±1336xx counts pro 60 Minuten

# Source: patent EP0418990A2, “13-Bromo and 13,14-dibromo ergoline, their preparation and their use” (SCHERING AKTIENGESELLSCHAFT, priority 1989, dated 1991)
